Results on 4 molecules are retold here after patent publication US20070059684A1 (UNIVERSITY OF MEDICINE AND DENTISTRY OF NEW JERSEY, published 2007).

Entries after “also recorded” stand apart in the source; their conditions may differ. Read-outs that look alike come from different tables or passages of the source.

One experiment has as its system translation. In kind it is cell-based, Saccharomyces cerevisiae. The settings on record: JD88 cells, indicated drug concentrations, 30° C. 5 hrs.
Experiment [1] has as its system L-A, M1 and L-BC dsRNA viruses. In kind it is cell-based, Saccharomyces cerevisiae. The settings on record: 72 hrs at 3.8 μM anisomycin; not confirmed by northern blot. From the text:
FIG. 12. (A) A single non-killer (K^−) colony from each drug concentration in the 72 hr data set was picked at random and total nucleic acids (TNA) were extracted [Dinman and Wickner, Virology 66:3669 (1992)]. Approximately equal amounts of TNA were separated through a 1% non-denaturing TAE-agarose gel and stained with ethidium bromide. The 4.6 kb L-A and L-BC, and the 1.8 kb M1 dsRNA bands are indicated. (B) RNA was denatured in the gel shown in (A), transferred to nitrocellulose and hybridized with [^32P]CTP labeled L-A and M1 (+) strand RNA probes as described in [Dinman and Wickner, Genetics 136:75 (1994)].
To determine whether loss of the M1 satellite virus was responsible for loss of the killer phenotype, a non-killer (K^−) colony from each drug concentration in the 72 hr data set was picked at random and total nucleic acids (TNA) were extracted [Park et al., Virology 216:451 (1996)]. Approximately equal amourits of TNA were separated through a 1% non-denaturing TAE-agarose gel and stained with ethidium bromide (FIG. 12A). As expected, the 1.8 kb M1 dsRNA band is not present in the K^− (drug treated) samples. Further, L-A appears to have also been cured by these drugs. […]
Recently the cDNA sequence of L-BC (also known as La), a ubiquitous minor dsRNA virus of yeast has been determined [Park et al., supra]. […]

For a further experiment, the system named is HIV. In kind it is cell-based, human.
For the next experiment, the system named is human host cells. Format: cell-based. The procedure: Antiviral activities of these antibiotics were also tested against HIV.
Experiment [2] deals with killer phenotype (M1 satellite virus). The settings on record: 3.8 μM anisomycin, after 48 or 72 hours, JD88 cells.
Protocol: JD88 cells were cultured in rich medium containing the indicated concentrations of either anisomycin (A) or sparsomycin (B). After 24, 48, 72, 96, or 120 hrs., aliquots of cells were removed, washed twice with sterile water, streaked onto rich medium, and grown to single colonies at 30° C. These were then replica plated onto indicator plates, and scored for their killer phenotypes. Loss of the killer phenotype was measured by dividing the number of non-killer (K^−) colonies by the total number of colonies. Each data set corresponds to >100 total colonies.
After 24, 48, 72, 96, or 120 hrs., aliquots of cells were streaked for single colonies onto rich medium, which were then replica plated onto indicator to score their killer phenotypes.
The next experiment concerns nonsense mutations. The settings on record: 5 ug/ml, UPF1+ and UPF1− strains.
Another experiment relates to tcm1/mak8 mutants. The note with it: cited from earlier work.
Experiment [3] relates to Saccharomyces cerevisiae strains (wildtype, mof4-1). Format: cell-based. The settings on record: 30° C. 4 days.
The next experiment has as its target T1, Upf2p (Saccharomyces cerevisiae, UniProt P38798 1-1089, limits assumed).
T1 construct: Tested in a two-hybrid system; also called product of the UPF2/IFS1 gene
T1 sequence (looked up): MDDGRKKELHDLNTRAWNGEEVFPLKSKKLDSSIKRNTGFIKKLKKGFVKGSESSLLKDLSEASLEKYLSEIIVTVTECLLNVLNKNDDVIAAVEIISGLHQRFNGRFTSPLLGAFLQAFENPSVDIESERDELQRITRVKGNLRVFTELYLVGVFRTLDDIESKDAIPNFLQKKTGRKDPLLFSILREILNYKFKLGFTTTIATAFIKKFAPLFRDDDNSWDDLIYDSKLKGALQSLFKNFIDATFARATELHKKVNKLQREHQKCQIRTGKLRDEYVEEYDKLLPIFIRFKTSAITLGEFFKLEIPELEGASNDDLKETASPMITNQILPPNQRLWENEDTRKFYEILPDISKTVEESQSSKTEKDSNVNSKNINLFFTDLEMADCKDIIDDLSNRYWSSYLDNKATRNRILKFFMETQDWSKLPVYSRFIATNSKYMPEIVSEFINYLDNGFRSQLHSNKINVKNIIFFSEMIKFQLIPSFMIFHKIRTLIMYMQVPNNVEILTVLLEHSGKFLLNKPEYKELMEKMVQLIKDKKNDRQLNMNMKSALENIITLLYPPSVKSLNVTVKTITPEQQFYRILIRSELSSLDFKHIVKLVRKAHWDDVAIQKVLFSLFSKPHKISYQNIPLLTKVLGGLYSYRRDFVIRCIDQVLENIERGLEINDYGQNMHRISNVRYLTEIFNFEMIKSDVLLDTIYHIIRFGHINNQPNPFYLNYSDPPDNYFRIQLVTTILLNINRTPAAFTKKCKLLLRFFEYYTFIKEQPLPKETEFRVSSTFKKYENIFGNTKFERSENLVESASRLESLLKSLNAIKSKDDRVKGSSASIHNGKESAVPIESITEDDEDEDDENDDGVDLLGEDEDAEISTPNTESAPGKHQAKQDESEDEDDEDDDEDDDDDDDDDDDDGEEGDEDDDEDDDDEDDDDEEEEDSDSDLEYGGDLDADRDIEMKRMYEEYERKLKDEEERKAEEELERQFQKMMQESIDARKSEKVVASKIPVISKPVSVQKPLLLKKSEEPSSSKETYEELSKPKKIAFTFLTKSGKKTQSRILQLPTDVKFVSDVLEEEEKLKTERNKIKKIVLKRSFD
The experiment in a line: two-hybrid system.

Protocol for nonsense mutations: Effects of drugs at a concentration of 5 μg/ml on nonsense supression in UPF+ and UPF− strains.
UPF1+ and UPF1− strains were treated with 5 ug/ml sparsomycin, anisomycin, and paromomycin, and tested for nonsense suppression.

With `COc1ccc(C[C@H]2NC[C@H](O)[C@H]2OC(C)=O)cc1` [anisomycin], the “overall translation (β-gal activities from pTI25) as percentage of the no drug controls” value in the experiment with translation is given as at least 80%. For the same molecule, the “L-BC dsRNA band” value in [1] is recorded as “appears to missing”. Also, in the experiment on HIV, the “titers of HIV” value is given as “decrease titers of HIV”. For the same molecule, in the experiment with HIV (anisomycin at concentrations 1500-fold lower than MIC, 4 days), the “HIV viral titers as % of the no drug controls” value is given as “approximately 30%”. In the experiment on HIV (concentration giving approximately 30% HIV titer), the “antiviral concentration relative to the MIC (fold lower)” value is 1500. In addition, in the experiment on human host cells, the “minimum inhibitory concentration (MIC)” value is listed as “about 1.5 ug/ml”. Besides, the “loss of the killer phenotype (non-killer colonies / total colony forming units)” value in experiment [2] was “approximately 53%”. Moreover, in the experiment with nonsense mutations, the nonsense suppression entry is “able to suppress nonsense mutations”. Further, the “effectiveness in tcm1/mak8 mutants” value in the experiment with tcm1/mak8 mutants was “resistant; also recorded: ineffective”.
For the molecule `NC[C@@H]1O[C@H](O[C@H]2[C@@H](O)[C@H](O[C@@H]3[C@@H](O)[C@H](N)C[C@H](N)[C@H]3O[C@H]3O[C@H](CO)[C@@H](O)[C@H](O)[C@H]3N)O[C@@H]2CO)[C@H](N)[C@@H](O)[C@@H]1O` [paromomycin], the “PAROMOMYCIN SENSITIVITY (diameter of the zone of growth inhibition)” value in experiment [3] (strain Wildtype (MOF+UPF+), disc 1.0 mg paromomycin, media lacking leucine) was found to be 0.7 cm; in [3] (strain mof4-1 (UPF1::URA3) + pmof4XAB, disc 1.0 mg, media lacking uracil and leucine), 1.6 cm; in experiment [3] (strain mof4-1 (UPF1::URA3) + pmof4XAE, disc 1.0 mg, media lacking uracil and leucine), 2.3 cm; in experiment [3] (strain mof4-1 (UPF1::URA3) + vector, disc 1.0 mg, media lacking uracil and leucine), 1.7 cm; in experiment [3] (strain mof4-1 + pYCpUPF1, disc 1.0 mg, media lacking uracil and leucine) it was 1.6 cm; in experiment [3] (strain mof4-1 + vector, disc 1.0 mg, media lacking uracil and leucine), 2.4 cm. Also, in experiment [3] (strain mof4-1, disc 1.0 mg paromomycin, media lacking leucine), the “PAROMOMYCIN SENSITIVITY (diameter of the zone of growth inhibition)” value is on record as 2.0 cm. Besides, the nonsense suppression result in the experiment with nonsense mutations is “able to suppress nonsense mutations”.

B1: Upf1p (other, Saccharomyces cerevisiae, UniProt P30771 1-971, looked up)
chain: MVGSGSHTPYDISNSPSDVNVQPATQLNSTLVEDDDVDNQLFEEAQVTETGFRSPSASDNSCAYCGIDSAKCVIKCNSCKKWFCNTKNGTSSSHIVNHLVLSHHNVVSLHPDSDLGDTVLECYNCGRKNVFLLGFVSAKSEAVVVLLCRIPCAQTKNANWDTDQWQPLIEDRQLLSWVAEQPTEEEKLKARLITPSQISKLEAKWRSNKDATINDIDAPEEQEAIPPLLLRYQDAYEYQRSYGPLIKLEADYDKQLKESQALEHISVSWSLALNNRHLASFTLSTFESNELKVAIGDEMILWYSGMQHPDWEGRGYIVRLPNSFQDTFTLELKPSKTPPPTHLTTGFTAEFIWKGTSYDRMQDALKKFAIDKKSISGYLYYKILGHQVVDISFDVPLPKEFSIPNFAQLNSSQSNAVSHVLQRPLSLIQGPPGTGKTVTSATIVYHLSKIHKDRILVCAPSNVAVDHLAAKLRDLGLKVVRLTAKSREDVESSVSNLALHNLVGRGAKGELKNLLKLKDEVGELSASDTKRFVKLVRKTEAEILNKADVVCCTCVGAGDKRLDTKFRTVLIDESTQASEPECLIPIVKGAKQVILVGDHQQLGPVILERKAADAGLKQSLFERLISLGHVPIRLEVQYRMNPYLSEFPSNMFYEGSLQNGVTIEQRTVPNSKFPWPIRGIPMMFWANYGREEISANGTSFLNRIEAMNCERIITKLFRDGVKPEQIGVITPYEGQRAYILQYMQMNGSLDKDLYIKVEVASVDAFQGREKDYIILSCVRANEQQAIGFLRDPRRLNVGLTRAKYGLVILGNPRSLARNTLWNHLLIHFREKGCLVEGTLDNLQLCTVQLVRPQPRKTERPMNAQFNVESEMGDFPKFQDFDAQSMVSFSGQIGDFGNAFVDNTELSSYINNEYWNFENFKSAFSQKQNRNEIDDRNLYQEEASHLNSNFARELQREEQKHELSKDFSNLGI
notes: Tested in a two-hybrid system; also called Upf1 protein; product of the UPF1/IFS2/MOF4 gene
As for B1, the binding result with Upf2p is “binds”.

B2: Upf3p (other, Saccharomyces cerevisiae, UniProt P48412 1-387, looked up)
chain: MSNVAGELKNSEGKKKGRGNRYHNKNRGKSKNETVDPKKNENKVNNATNATHNNSKGRRNNKKRNREYYNYKRKARLGKSTENEGFKLVIRLLPPNLTADEFFAILRDNNNDDGDKQDIQGKLKYSDWCFFEGHYSSKVFKNSTYSRCNFLFDNLSDLEKCANFIKTCKFIDNKDNITIPDMKLSPYVKKFTQTSKKDAALVGTIEEDEIFKTFMNSMKQLNENDEYSFQDFSVLKSLEKEFSKSIELENKIAERTERVLTELVGTGDKVKNKNKKKKNKNAKKKFKEEEASAKIPKKKRNRGKKKRENREKSTISKTKNSNVVIIEEAGKEVLKQRKKKMLLQEKLKISNSSQPQSSSAQTQPSFQPKENLFVPRVKILHRDDTKK
notes: Tested in a two-hybrid system; also called product of the UPF3 gene
Turning to B2, the binding result with Upf2p is “binds”.
